Data reported in publication PMC5218480 (PLoS ONE, 2017).

System: MV-4-11 cells
Test: Gene expression microarray analysis (Affymetrix PrimeView) and GSEA
Assay type: cell-based, human
Set-up: RFU PODN (11730768_x_at) / Fold change /veh PODN (11730768_x_at) / RFU LINC00158 (11744669_a_at) / Fold change /veh LINC00158 (11744669_a_at) / RFU DUSP10 (11751237_a_at) / Fold change /veh DUSP10 (11751237_a_at) / RFU ID3 (11757404_x_at) / Fold change /veh ID3 (11757404_x_at) / RFU PLEKHG5 (11737974_s_at) / Fold change /veh PLEKHG5 (11737974_s_at) / RFU LRRC4B (11730491_at) / Fold change /veh LRRC4B (11730491_at) / RFU GIMAP4 (11747438_a_at) / Fold change /veh GIMAP4 (11747438_a_at) / RFU KRT8 (11758183_x_at) / Fold change /veh KRT8 (11758183_x_at) / RFU CNN1 (11734310_a_at) / Fold change /veh CNN1 (11734310_a_at) / RFU VPS37D (11726825_at) / Fold change /veh VPS37D (11726825_at) / RFU C10orf10 (11716522_x_at) / Fold change /veh C10orf10 (11716522_x_at) / RFU KIR2DL2 /// KIR2DL4 /// KIR2DL5A /// KIR2DL5B /// KIR2DS1 /// KIR2DS2 /// KIR2DS3 /// KIR2DS4 /// KIR3DL3 /// KIR3DL3 /// KIR3DS1 (11738374_at) / Fold change /veh KIR2DL2 /// KIR2DL4 /// KIR2DL5A /// KIR2DL5B /// KIR2DS1 /// KIR2DS2 /// KIR2DS3 /// KIR2DS4 /// KIR3DL3 /// KIR3DL3 /// KIR3DS1 (11738374_at) / RFU C1QL1 (11718748_at) / Fold change /veh C1QL1 (11718748_at) / RFU TMPRSS4 (11747572_a_at) / Fold change /veh TMPRSS4 (11747572_a_at) / RFU HAMP (11756126_x_at) / Fold change /veh HAMP (11756126_x_at) / RFU RNFT2 (11725882_a_at) / Fold change /veh RNFT2 (11725882_a_at) / RFU NR4A2 (11747474_a_at) / Fold change /veh NR4A2 (11747474_a_at) / RFU ABCC12 (11746883_a_at) / Fold change /veh ABCC12 (11746883_a_at) / RFU TMEM136 (11760407_x_at) / Fold change /veh TMEM136 (11760407_x_at) / RFU CLDN22 /// WWC2 (11732394_at) / Fold change /veh CLDN22 /// WWC2 (11732394_at) / RFU HLA-DPB1 (11760878_x_at) / Fold change /veh HLA-DPB1 (11760878_x_at) / RFU SPINT1 (11716480_a_at) / Fold change /veh SPINT1 (11716480_a_at) / RFU GAP43 (11754022_s_at) / Fold change /veh GAP43 (11754022_s_at) / RFU A4GNT (11735810_at) / Fold change /veh A4GNT (11735810_at) / RFU PRB3 (11715151_x_at) / Fold change /veh PRB3 (11715151_x_at) / RFU TUBB4B (11761932_at) / Fold change /veh TUBB4B (11761932_at) / RFU CAPN14 (11732068_a_at) / Fold change /veh CAPN14 (11732068_a_at) / RFU TMCC2 (11721928_a_at) / Fold change /veh TMCC2 (11721928_a_at) / RFU IRGQ (11745062_a_at) / Fold change /veh IRGQ (11745062_a_at) / RFU FAM174B (11720279_a_at) / Fold change /veh FAM174B (11720279_a_at) / RFU TMPRSS4 (11748680_a_at) / Fold change /veh TMPRSS4 (11748680_a_at) / RFU FAM212B (11763350_a_at) / Fold change /veh FAM212B (11763350_a_at) / RFU PLEKHG5 (11743358_a_at) / Fold change /veh PLEKHG5 (11743358_a_at) / RFU ZSCAN30 (11745921_a_at) / Fold change /veh ZSCAN30 (11745921_a_at) / RFU CMKLR1 (11741424_a_at) / Fold change /veh CMKLR1 (11741424_a_at) / RFU LOC101060620 /// MAPK8IP1 (11723275_at) / Fold change /veh LOC101060620 /// MAPK8IP1 (11723275_at) / RFU SPTSSB (11747773_x_at) / Fold change /veh SPTSSB (11747773_x_at) / RFU PRSS12 (11739890_at) / Fold change /veh PRSS12 (11739890_at) / RFU BIN1 (11741810_x_at) / Fold change /veh BIN1 (11741810_x_at) / RFU WNT11 (11732464_a_at) / Fold change /veh WNT11 (11732464_a_at) / RFU C10orf10 (11716521_a_at) / Fold change /veh C10orf10 (11716521_a_at) / RFU C5orf56 (11738089_at) / Fold change /veh C5orf56 (11738089_at) / RFU CYB561 (11721691_x_at) / Fold change /veh CYB561 (11721691_x_at) / RFU ANKRD19P (11752326_a_at) / Fold change /veh ANKRD19P (11752326_a_at) / RFU OR2T12 /// OR2T33 /// OR2T8 (11738714_s_at) / Fold change /veh OR2T12 /// OR2T33 /// OR2T8 (11738714_s_at) / RFU VCAN (11748164_a_at) / Fold change /veh VCAN (11748164_a_at) / RFU JSRP1 (11732532_at) / Fold change /veh JSRP1 (11732532_at) / RFU KRTAP10-11 (11738290_x_at) / Fold change /veh KRTAP10-11 (11738290_x_at) / RFU MYO3A (11730013_a_at) / Fold change /veh MYO3A (11730013_a_at) / RFU EBF3 (11725865_a_at) / Fold change /veh EBF3 (11725865_a_at) / RFU CAMK2N1 (11719241_x_at) / Fold change /veh CAMK2N1 (11719241_x_at) / RFU C5orf56 (11738088_a_at) / Fold change /veh C5orf56 (11738088_a_at) / RFU OLFML3 (11715873_a_at) / Fold change /veh OLFML3 (11715873_a_at) / RFU LOC100653217 /// NTM (11731650_a_at) / Fold change /veh LOC100653217 /// NTM (11731650_a_at) / RFU MAPK11 (11762145_a_at) / Fold change /veh MAPK11 (11762145_a_at) / RFU FIZ1 (11724087_x_at) / Fold change /veh FIZ1 (11724087_x_at) / RFU OASL (11726364_x_at) / Fold change /veh OASL (11726364_x_at) / RFU SOX15 (11748057_x_at) / Fold change /veh SOX15 (11748057_x_at) / RFU CD79A (11719716_a_at) / Fold change /veh CD79A (11719716_a_at) / RFU HIST1H1D (11736915_at) / Fold change /veh HIST1H1D (11736915_at) / RFU CASKIN2 (11723855_a_at) / Fold change /veh CASKIN2 (11723855_a_at) / RFU LOC730098 (11760151_x_at) / Fold change /veh LOC730098 (11760151_x_at) / RFU OR4N2 (11742367_at) / Fold change /veh OR4N2 (11742367_at) / RFU PRRT2 (11749266_a_at) / Fold change /veh PRRT2 (11749266_a_at) / RFU SNX32 (11753110_a_at) / Fold change /veh SNX32 (11753110_a_at) / RFU CDHR5 (11726645_a_at) / Fold change /veh CDHR5 (11726645_a_at) / RFU RCAN1 (11760418_a_at) / Fold change /veh RCAN1 (11760418_a_at) / RFU FAM167A (11723789_a_at) / Fold change /veh FAM167A (11723789_a_at) / RFU FAM26E (11764081_at) / Fold change /veh FAM26E (11764081_at) / RFU ISYNA1 (11749810_s_at) / Fold change /veh ISYNA1 (11749810_s_at) / RFU ACY1 (11761880_at) / Fold change /veh ACY1 (11761880_at) / RFU 11764098_at / Fold change /veh 11764098_at / RFU SAMD14 (11745864_x_at) / Fold change /veh SAMD14 (11745864_x_at) / RFU NPB (11741838_a_at) / Fold change /veh NPB (11741838_a_at) / RFU TMPRSS6 (11731388_a_at) / Fold change /veh TMPRSS6 (11731388_a_at) / RFU KRTAP10-2 (11738614_at) / Fold change /veh KRTAP10-2 (11738614_at) / RFU ARHGAP8 /// PRR5-ARHGAP8 (11727945_x_at) / Fold change /veh ARHGAP8 /// PRR5-ARHGAP8 (11727945_x_at) / RFU KRTAP5-7 /// NADSYN1 (11734609_at) / Fold change /veh KRTAP5-7 /// NADSYN1 (11734609_at) / RFU RASL12 (11751679_a_at) / Fold change /veh RASL12 (11751679_a_at) / RFU CDKN2B (11736163_a_at) / Fold change /veh CDKN2B (11736163_a_at) / RFU PRF1 (11729649_at) / Fold change /veh PRF1 (11729649_at) / RFU, ZNF638 /// ZNF638-IT1 / Fold change vs veh, ZNF638 /// ZNF638-IT1 / RFU, PANK3 / Fold change vs veh, PANK3 / RFU, SH3YL1 / Fold change vs veh, SH3YL1 / RFU, ZEB2 / Fold change vs veh, ZEB2 / RFU, NRIP1 / Fold change vs veh, NRIP1 / RFU, PTTG1IP / Fold change vs veh, PTTG1IP / RFU, CAPN2 / Fold change vs veh, CAPN2 / RFU, MED14 / Fold change vs veh, MED14 / RFU, SNORA58 / Fold change vs veh, SNORA58 / RFU, C1orf63 / Fold change vs veh, C1orf63 / RFU, LRRFIP1 / Fold change vs veh, LRRFIP1 / RFU, NDUFAF7 / Fold change vs veh, NDUFAF7 / RFU, SLC12A2 / Fold change vs veh, SLC12A2 / RFU, IBTK / Fold change vs veh, IBTK / RFU, ESF1 / Fold change vs veh, ESF1 / Fold change vs veh, TMEM50B / RFU, TAOK1 / Fold change vs veh, TAOK1 / RFU, ACBD3 / Fold change vs veh, ACBD3 / RFU, TMA16 / Fold change vs veh, TMA16 / RFU, RWDD3 / Fold change vs veh, RWDD3 / RFU, BCAT1 / Fold change vs veh, BCAT1 / RFU, EDEM3 / Fold change vs veh, EDEM3 / RFU, TMEM33 / Fold change vs veh, TMEM33 / RFU, WDR75 / Fold change vs veh, WDR75 / RFU, AHCTF1 / Fold change vs veh, AHCTF1 / RFU, TFRC / Fold change vs veh, TFRC / RFU, ZDHHC17 / Fold change vs veh, ZDHHC17 / RFU, NOM1 / Fold change vs veh, NOM1 / RFU, ARL8B / Fold change vs veh, ARL8B / RFU, ZBTB11 / Fold change vs veh, ZBTB11 / RFU, TAMM41 / Fold change vs veh, TAMM41 / RFU, KIAA1704 /// LOC100996395 / Fold change vs veh, KIAA1704 /// LOC100996395 / RFU, ING1 / Fold change vs veh, ING1 / RFU, TRMT61B / Fold change vs veh, TRMT61B / RFU, FUBP3 / Fold change vs veh, FUBP3 / RFU, TP53 / Fold change vs veh, TP53 / RFU, TNKS2 / Fold change vs veh, TNKS2 / RFU, ZFP14 / Fold change vs veh, ZFP14 / RFU, ACTR2 / Fold change vs veh, ACTR2 / RFU, PPP3R1 / Fold change vs veh, PPP3R1 / RFU, PIK3R1 / Fold change vs veh, PIK3R1 / RFU, HNRNPA1 / Fold change vs veh, HNRNPA1 / RFU, RNF170 / Fold change vs veh, RNF170 / RFU, ZNF28 / Fold change vs veh, ZNF28 / RFU, RNGTT / Fold change vs veh, RNGTT / RFU, OGT / Fold change vs veh, OGT / RFU, BRD1 / Fold change vs veh, BRD1 / RFU, MARS / Fold change vs veh, MARS / RFU, ZNF655 / Fold change vs veh, ZNF655 / RFU, FAHD1 / Fold change vs veh, FAHD1 / RFU, BDP1 / Fold change vs veh, BDP1 / RFU, LRRCC1 / Fold change vs veh, LRRCC1 / RFU, ARID1A / Fold change vs veh, ARID1A / RFU, ZNF146 / Fold change vs veh, ZNF146 / RFU, ZNF330 / Fold change vs veh, ZNF330 / RFU, GPN3 / Fold change vs veh, GPN3 / RFU, C9orf123 / Fold change vs veh, C9orf123 / RFU, N4BP2L2 / Fold change vs veh, N4BP2L2 / RFU, ARFIP1 / Fold change vs veh, ARFIP1 / RFU, FAM179B / Fold change vs veh, FAM179B / RFU, BCL10 / Fold change vs veh, BCL10 / RFU, UHRF1BP1L / Fold change vs veh, UHRF1BP1L / RFU, BET1 / Fold change vs veh, BET1 / RFU, CNOT2 / Fold change vs veh, CNOT2 / RFU, ZNF268 / Fold change vs veh, ZNF268 / Fold change vs veh, ZNF507 / RFU, DGCR2 / Fold change vs veh, DGCR2 / RFU, WDSUB1 / Fold change vs veh, WDSUB1 / Fold change vs veh, HSP90B1 /// MIR3652 / RFU, ADSS / Fold change vs veh, ADSS / RFU, GK / Fold change vs veh, GK / RFU, ZNF148 / Fold change vs veh, ZNF148 / RFU, TAF9 / Fold change vs veh, TAF9 / RFU, SLC1A5 / Fold change vs veh, SLC1A5 / RFU, SLMO2 / Fold change vs veh, SLMO2 / RFU, ABCC4 / Fold change vs veh, ABCC4 / RFU, LOC101060439 /// RAP1B / Fold change vs veh, LOC101060439 /// RAP1B / RFU, RFX7 / Fold change vs veh, RFX7 / RFU, GTPBP10 / Fold change vs veh, GTPBP10 / RFU, CNEP1R1 / Fold change vs veh, CNEP1R1 / RFU, BIVM-ERCC5 /// ERCC5 / Fold change vs veh, BIVM-ERCC5 /// ERCC5 / RFU, ILF3 / Fold change vs veh, ILF3 / RFU 11762660_at / Fold change /veh 11762660_at / RFU VCAN (11757783_s_at) / Fold change /veh VCAN (11757783_s_at) / RFU DDX43 (11728927_at) / Fold change /veh DDX43 (11728927_at) / RFU KRT8 (11758188_x_at) / Fold change /veh KRT8 (11758188_x_at) / RFU NKD1 (11759106_at) / Fold change /veh NKD1 (11759106_at) / RFU SRD5A1 (11742802_a_at) / Fold change /veh SRD5A1 (11742802_a_at) / RFU TPSAB1 /// TPSB2 (11721975_s_at) / Fold change /veh TPSAB1 /// TPSB2 (11721975_s_at) / RFU GSTM3 (11746129_a_at) / Fold change /veh GSTM3 (11746129_a_at) / RFU IL23R (11737362_x_at) / Fold change /veh IL23R (11737362_x_at) / RFU TMEM51 (11727254_a_at) / Fold change /veh TMEM51 (11727254_a_at) / RFU PIWIL2 (11732686_x_at) / Fold change /veh PIWIL2 (11732686_x_at) / RFU ORM1 (11744905_x_at) / Fold change /veh ORM1 (11744905_x_at) / RFU CCDC152 (11743942_at) / Fold change /veh CCDC152 (11743942_at) / RFU ECM1 (11717891_a_at) / Fold change /veh ECM1 (11717891_a_at) / RFU IL23R (11748794_a_at) / Fold change /veh IL23R (11748794_a_at) / RFU TNFAIP8L3 (11732012_x_at) / Fold change /veh TNFAIP8L3 (11732012_x_at) / RFU MBOAT4 (11741988_at) / Fold change /veh MBOAT4 (11741988_at) / RFU 11764193_at / Fold change /veh 11764193_at / RFU TMEM53 (11763286_at) / Fold change /veh TMEM53 (11763286_at) / RFU MAGEB2 (11727129_at) / Fold change /veh MAGEB2 (11727129_at) / RFU TMEM200A (11744735_a_at) / Fold change /veh TMEM200A (11744735_a_at) / RFU CCDC152 (11751479_a_at) / Fold change /veh CCDC152 (11751479_a_at) / RFU FAM211A (11726209_a_at) / Fold change /veh FAM211A (11726209_a_at) / RFU RGS16 (11746705_a_at) / Fold change /veh RGS16 (11746705_a_at) / RFU VCAN (11755009_s_at) / Fold change /veh VCAN (11755009_s_at) / RFU RHOB (11743442_s_at) / Fold change /veh RHOB (11743442_s_at) / RFU RGS16 (11720943_a_at) / Fold change /veh RGS16 (11720943_a_at) / RFU RGS16 (11720944_at) / Fold change /veh RGS16 (11720944_at) / RFU, VPS4B / Fold change vs veh, VPS4B / RFU, CREB1 / Fold change vs veh, CREB1 / RFU, DNAJC13 / Fold change vs veh, DNAJC13 / RFU, GNAQ / Fold change vs veh, GNAQ / RFU, CDK5R1 / Fold change vs veh, CDK5R1 / RFU, ZRANB3 / Fold change vs veh, ZRANB3 / RFU, CUL4A / Fold change vs veh, CUL4A / RFU, CCNY / Fold change vs veh, CCNY / RFU, UFL1 / Fold change vs veh, UFL1 / RFU, COG3 / Fold change vs veh, COG3 / RFU, DIAPH2 / Fold change vs veh, DIAPH2 / RFU, SKA2 / Fold change vs veh, SKA2 / RFU, AFF3 / Fold change vs veh, AFF3 / RFU, LMF1 / Fold change vs veh, LMF1 / RFU, IPO11 / Fold change vs veh, IPO11 / RFU, DFFB / Fold change vs veh, DFFB / RFU, FOXP1 / Fold change vs veh, FOXP1 / RFU, CARD8 / Fold change vs veh, CARD8 / RFU, STRN3 / Fold change vs veh, STRN3 / RFU, ADK / Fold change vs veh, ADK / RFU, RASSF2 / Fold change vs veh, RASSF2 / RFU, WIPF1 / Fold change vs veh, WIPF1 / RFU, LARP1B / Fold change vs veh, LARP1B / RFU, RASA1 / Fold change vs veh, RASA1 / RFU, RB1 / Fold change vs veh, RB1 / RFU, PPFIA1 / Fold change vs veh, PPFIA1 / RFU, MAT2A / Fold change vs veh, MAT2A / RFU, CCT5 / Fold change vs veh, CCT5 / RFU, WDR92 / Fold change vs veh, WDR92 / RFU, CUX1 / Fold change vs veh, CUX1 / RFU, TTC7A / Fold change vs veh, TTC7A / RFU, TMEM135 / Fold change vs veh, TMEM135 / RFU, DEPTOR / Fold change vs veh, DEPTOR / RFU, CPM / Fold change vs veh, CPM / RFU, DNAJB6 / Fold change vs veh, DNAJB6 / RFU, CACNA2D3 / Fold change vs veh, CACNA2D3 / RFU, DTX4 / Fold change vs veh, DTX4 / RFU, TFCP2 / Fold change vs veh, TFCP2 / RFU, GMCL1 /// GMCL1P1 / Fold change vs veh, GMCL1 /// GMCL1P1 / RFU, AEBP2 / Fold change vs veh, AEBP2 / RFU, SNHG1 /// SNORD22 /// SNORD25 /// SNORD26 /// SNORD27 /// SNORD28 /// SNORD29 /// SNORD31 / Fold change vs veh, SNHG1 /// SNORD22 /// SNORD25 /// SNORD26 /// SNORD27 /// SNORD28 /// SNORD29 /// SNORD31 / Fold change (Aza/veh), C12orf56 (ProbeSet 11735607_a_at) / Fold change (ACY-1035/veh), C12orf56 (ProbeSet 11735607_a_at) / Fold change (Aza/veh), FGFR1OP (ProbeSet 11751329_s_at) / Fold change (ACY-1035/veh), FGFR1OP (ProbeSet 11751329_s_at) / Fold change (Aza/veh), VPS36 (ProbeSet 11739960_a_at) / Fold change (ACY-1035/veh), VPS36 (ProbeSet 11739960_a_at) / RFU SYPL1 (11715823_x_at) / Fold change /veh SYPL1 (11715823_x_at) / RFU IGFBP7 (11715501_s_at) / Fold change /veh IGFBP7 (11715501_s_at) / RFU REEP3 (11722064_at) / Fold change /veh REEP3 (11722064_at) / RFU IGLL1 (11728026_x_at) / Fold change /veh IGLL1 (11728026_x_at): dose or concentration left out as unconfirmed
Conditions: MV-4-11 cells, 48 hours

With `Nc1ncn([C@@H]2O[C@H](CO)[C@@H](O)[C@H]2O)c(=O)n1` [azacitidine] the “RFU MAGEB2 (11727129_at)” value was 14.25 RFU.
